Data from ChEMBL document CHEMBL5260810, “Inhibition of bromodomain-containing protein 9 for the prevention of epigenetically-defined drug resistance” (Bioorg Med Chem Lett, 2017).
pIC50, pKd: −log10 of the molar value.

Molecular target: T1, Muscle, skeletal receptor tyrosine-protein kinase (Homo sapiens) (UniProt O15146)
T1 sequence (whole entry): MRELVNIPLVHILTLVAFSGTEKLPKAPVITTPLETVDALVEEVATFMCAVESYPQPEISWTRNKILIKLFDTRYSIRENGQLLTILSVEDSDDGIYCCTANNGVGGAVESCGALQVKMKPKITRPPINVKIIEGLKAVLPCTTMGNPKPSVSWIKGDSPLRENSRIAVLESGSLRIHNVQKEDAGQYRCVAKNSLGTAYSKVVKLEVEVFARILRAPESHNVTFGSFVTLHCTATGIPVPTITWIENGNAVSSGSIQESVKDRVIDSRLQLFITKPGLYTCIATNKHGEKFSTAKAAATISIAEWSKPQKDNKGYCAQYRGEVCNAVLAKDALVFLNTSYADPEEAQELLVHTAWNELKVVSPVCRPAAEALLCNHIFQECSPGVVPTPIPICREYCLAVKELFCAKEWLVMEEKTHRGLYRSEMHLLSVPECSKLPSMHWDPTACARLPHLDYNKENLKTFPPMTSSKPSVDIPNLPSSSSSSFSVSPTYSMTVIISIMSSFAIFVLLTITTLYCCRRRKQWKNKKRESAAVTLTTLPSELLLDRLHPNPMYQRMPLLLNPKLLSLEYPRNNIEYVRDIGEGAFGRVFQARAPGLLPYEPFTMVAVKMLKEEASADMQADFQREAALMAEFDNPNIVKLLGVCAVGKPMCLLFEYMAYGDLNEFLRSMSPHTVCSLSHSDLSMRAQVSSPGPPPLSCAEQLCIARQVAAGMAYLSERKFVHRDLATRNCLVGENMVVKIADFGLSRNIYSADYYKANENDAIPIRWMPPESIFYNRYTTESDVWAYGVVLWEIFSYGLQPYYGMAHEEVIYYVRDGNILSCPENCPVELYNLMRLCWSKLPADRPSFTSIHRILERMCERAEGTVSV
Assay: Inhibition of MuSK (unknown origin) at 1 uM relative to control
Settings: not given

Which inhibition does the source give for C/C=C/Cn1cc(-c2ccc(C(C)(C)O)cc2OC)c2cc[nH]c2c1=O here?
Its inhibition is 1.5%.

Tested on: MCF7
Assay: Cytotoxicity against human MCF7 cells measured after 8 days
Type: functional, cell-based
Settings: MCF7, 192 h

With C/C=C/Cn1cc(-c2ccc(C(C)(C)O)cc2OC)c2cc[nH]c2c1=O as the compound, how does the pIC50 read?
The pIC50 was 4.70.

Tested on: HCC70
Assay: Cytotoxicity against human HCC70 cells measured after 8 days
Type: functional, cell-based
Settings: HCC70, 192 h

With C/C=C/Cn1cc(-c2ccc(C(C)(C)O)cc2OC)c2cc[nH]c2c1=O as the compound, how does the pIC50 read?
The pIC50 was 4.70.

Tested on: not listed separately
Assay: Cytotoxicity against human NCI-H2373 cells measured after 8 days
Type: functional, cell-based
Settings: NCI-H2373, 192 h

With C/C=C/Cn1cc(-c2ccc(C(C)(C)O)cc2OC)c2cc[nH]c2c1=O as the compound, how does the pIC50 read?
Its pIC50 is 4.70.

Tested on: not listed separately
Assay: Cytotoxicity against human NCI-H2810 cells measured after 8 days
Type: functional, cell-based
Settings: NCI-H2810, 192 h

With C/C=C/Cn1cc(-c2ccc(C(C)(C)O)cc2OC)c2cc[nH]c2c1=O as the compound, how does the pIC50 read?
The pIC50 was 4.70.

Tested on: LoVo
Assay: Cytotoxicity against human LoVo cells measured after 8 days
Type: functional, cell-based
Settings: 192 h

With C/C=C/Cn1cc(-c2ccc(C(C)(C)O)cc2OC)c2cc[nH]c2c1=O as the compound, how does the pIC50 read?
The pIC50 was 4.70.

Tested on: NCI-H1355
Assay: Cytotoxicity against human NCI-H1355 cells measured after 8 days
Type: functional, cell-based
Settings: NCI-H1355, 192 h

With C/C=C/Cn1cc(-c2ccc(C(C)(C)O)cc2OC)c2cc[nH]c2c1=O as the compound, how does the pIC50 read?
The pIC50 was 4.70.

Tested on: not listed separately
Assay: Cytotoxicity against human HCC4011 cells measured after 8 days
Type: functional, cell-based
Settings: HCC4011, 192 h

With C/C=C/Cn1cc(-c2ccc(C(C)(C)O)cc2OC)c2cc[nH]c2c1=O as the compound, how does the pIC50 read?
The pIC50 was 4.70.

Tested on: not listed separately
Assay: Cytotoxicity against human OVCA429 cells measured after 8 days
Type: functional, cell-based
Settings: OVCA429, 192 h

With C/C=C/Cn1cc(-c2ccc(C(C)(C)O)cc2OC)c2cc[nH]c2c1=O as the compound, how does the pIC50 read?
The pIC50 was 4.70.

Molecular target: Nucleosome-remodeling factor subunit BPTF (Homo sapiens, UniProt Q12830)
Assay: Binding affinity to human partial length FALZ (S2791 to H2911 residues) expressed in bacterial expression system by BROMOscan assay
Settings: not given

With C/C=C/Cn1cc(-c2ccc(C(C)(C)O)cc2OC)c2cc[nH]c2c1=O as the compound, how does the pKd read?
The pKd was less than 5.00.

Molecular target: T2, Muscarinic acetylcholine receptor M1 (Homo sapiens) (UniProt P11229)
T2 sequence (whole entry): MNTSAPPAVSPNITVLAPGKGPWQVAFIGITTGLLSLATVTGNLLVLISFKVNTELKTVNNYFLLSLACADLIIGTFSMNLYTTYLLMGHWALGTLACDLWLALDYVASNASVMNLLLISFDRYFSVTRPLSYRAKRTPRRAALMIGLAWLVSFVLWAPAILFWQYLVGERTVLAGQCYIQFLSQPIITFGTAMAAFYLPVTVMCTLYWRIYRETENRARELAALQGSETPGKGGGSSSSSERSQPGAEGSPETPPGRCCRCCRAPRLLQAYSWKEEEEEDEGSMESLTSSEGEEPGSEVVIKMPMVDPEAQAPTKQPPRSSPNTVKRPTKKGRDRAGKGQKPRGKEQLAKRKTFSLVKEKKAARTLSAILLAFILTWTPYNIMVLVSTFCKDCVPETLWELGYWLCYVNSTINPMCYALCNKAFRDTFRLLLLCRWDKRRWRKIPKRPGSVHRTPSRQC
Assay: Displacement of [125I]pirenzepine from human recombinant M1 receptor at 10 uM after 60 mins by scintillation counting analysis relative to control
Settings: not given

With C/C=C/Cn1cc(-c2ccc(C(C)(C)O)cc2OC)c2cc[nH]c2c1=O as the compound, how does the Activity read?
Its Activity is 1%.

Molecular target: Insulin receptor (Homo sapiens) (UniProt P06213)
Sequence (P06213 28-758 limits assumed): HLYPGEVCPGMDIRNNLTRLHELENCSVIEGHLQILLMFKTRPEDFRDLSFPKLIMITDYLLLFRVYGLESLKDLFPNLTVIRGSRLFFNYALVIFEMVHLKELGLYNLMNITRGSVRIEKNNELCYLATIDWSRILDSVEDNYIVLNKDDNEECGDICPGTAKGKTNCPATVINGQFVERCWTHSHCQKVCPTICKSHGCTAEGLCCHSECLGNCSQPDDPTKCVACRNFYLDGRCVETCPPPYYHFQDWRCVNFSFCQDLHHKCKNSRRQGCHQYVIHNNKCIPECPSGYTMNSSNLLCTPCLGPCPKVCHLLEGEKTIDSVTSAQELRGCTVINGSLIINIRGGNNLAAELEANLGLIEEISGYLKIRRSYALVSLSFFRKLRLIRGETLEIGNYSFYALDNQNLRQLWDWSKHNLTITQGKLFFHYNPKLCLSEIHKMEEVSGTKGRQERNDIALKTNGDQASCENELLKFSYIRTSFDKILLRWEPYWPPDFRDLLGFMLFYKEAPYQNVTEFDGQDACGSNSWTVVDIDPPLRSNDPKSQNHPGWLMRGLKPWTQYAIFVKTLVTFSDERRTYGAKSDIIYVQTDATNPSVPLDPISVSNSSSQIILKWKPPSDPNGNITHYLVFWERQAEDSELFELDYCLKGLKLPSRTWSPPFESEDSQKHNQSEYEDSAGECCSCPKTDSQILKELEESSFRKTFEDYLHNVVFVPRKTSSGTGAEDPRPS
Sequence (P06213 763-1382 limits assumed): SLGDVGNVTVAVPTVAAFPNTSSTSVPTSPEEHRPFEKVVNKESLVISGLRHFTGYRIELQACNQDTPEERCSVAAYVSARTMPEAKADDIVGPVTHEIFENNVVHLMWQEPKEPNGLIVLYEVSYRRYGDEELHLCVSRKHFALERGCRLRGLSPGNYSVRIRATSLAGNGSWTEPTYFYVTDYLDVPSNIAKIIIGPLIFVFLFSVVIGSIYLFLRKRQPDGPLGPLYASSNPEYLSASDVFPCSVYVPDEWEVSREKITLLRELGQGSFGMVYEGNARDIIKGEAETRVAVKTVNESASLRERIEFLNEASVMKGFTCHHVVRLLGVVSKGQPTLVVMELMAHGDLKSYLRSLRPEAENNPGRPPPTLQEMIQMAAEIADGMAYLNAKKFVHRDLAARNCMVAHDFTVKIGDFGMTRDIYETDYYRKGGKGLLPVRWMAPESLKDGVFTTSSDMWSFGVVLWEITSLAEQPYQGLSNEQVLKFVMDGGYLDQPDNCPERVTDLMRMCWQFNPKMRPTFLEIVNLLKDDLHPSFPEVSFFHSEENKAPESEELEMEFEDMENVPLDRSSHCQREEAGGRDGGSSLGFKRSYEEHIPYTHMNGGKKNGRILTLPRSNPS
Assay: Inhibition of InsR (unknown origin) at 1 uM relative to control
Settings: not given

With C/C=C/Cn1cc(-c2ccc(C(C)(C)O)cc2OC)c2cc[nH]c2c1=O as the compound, how does the inhibition read?
Its inhibition is 4.5%.

Tested on: LS180
Assay: Cytotoxicity against human LS180 cells measured after 8 days
Type: functional, cell-based
Settings: LS180, 192 h

With C/C=C/Cn1cc(-c2ccc(C(C)(C)O)cc2OC)c2cc[nH]c2c1=O as the compound, how does the pIC50 read?
The pIC50 was 4.70.

Tested on: HCC1954
Assay: Cytotoxicity against human HCC1954 cells measured after 8 days
Type: functional, cell-based
Settings: HCC1954, 192 h

With C/C=C/Cn1cc(-c2ccc(C(C)(C)O)cc2OC)c2cc[nH]c2c1=O as the compound, how does the pIC50 read?
The pIC50 was 4.70.

Molecular target: Mitogen-activated protein kinase kinase kinase kinase 4 (Homo sapiens) (UniProt O95819)
Sequence (O95819 2-1239 limits assumed): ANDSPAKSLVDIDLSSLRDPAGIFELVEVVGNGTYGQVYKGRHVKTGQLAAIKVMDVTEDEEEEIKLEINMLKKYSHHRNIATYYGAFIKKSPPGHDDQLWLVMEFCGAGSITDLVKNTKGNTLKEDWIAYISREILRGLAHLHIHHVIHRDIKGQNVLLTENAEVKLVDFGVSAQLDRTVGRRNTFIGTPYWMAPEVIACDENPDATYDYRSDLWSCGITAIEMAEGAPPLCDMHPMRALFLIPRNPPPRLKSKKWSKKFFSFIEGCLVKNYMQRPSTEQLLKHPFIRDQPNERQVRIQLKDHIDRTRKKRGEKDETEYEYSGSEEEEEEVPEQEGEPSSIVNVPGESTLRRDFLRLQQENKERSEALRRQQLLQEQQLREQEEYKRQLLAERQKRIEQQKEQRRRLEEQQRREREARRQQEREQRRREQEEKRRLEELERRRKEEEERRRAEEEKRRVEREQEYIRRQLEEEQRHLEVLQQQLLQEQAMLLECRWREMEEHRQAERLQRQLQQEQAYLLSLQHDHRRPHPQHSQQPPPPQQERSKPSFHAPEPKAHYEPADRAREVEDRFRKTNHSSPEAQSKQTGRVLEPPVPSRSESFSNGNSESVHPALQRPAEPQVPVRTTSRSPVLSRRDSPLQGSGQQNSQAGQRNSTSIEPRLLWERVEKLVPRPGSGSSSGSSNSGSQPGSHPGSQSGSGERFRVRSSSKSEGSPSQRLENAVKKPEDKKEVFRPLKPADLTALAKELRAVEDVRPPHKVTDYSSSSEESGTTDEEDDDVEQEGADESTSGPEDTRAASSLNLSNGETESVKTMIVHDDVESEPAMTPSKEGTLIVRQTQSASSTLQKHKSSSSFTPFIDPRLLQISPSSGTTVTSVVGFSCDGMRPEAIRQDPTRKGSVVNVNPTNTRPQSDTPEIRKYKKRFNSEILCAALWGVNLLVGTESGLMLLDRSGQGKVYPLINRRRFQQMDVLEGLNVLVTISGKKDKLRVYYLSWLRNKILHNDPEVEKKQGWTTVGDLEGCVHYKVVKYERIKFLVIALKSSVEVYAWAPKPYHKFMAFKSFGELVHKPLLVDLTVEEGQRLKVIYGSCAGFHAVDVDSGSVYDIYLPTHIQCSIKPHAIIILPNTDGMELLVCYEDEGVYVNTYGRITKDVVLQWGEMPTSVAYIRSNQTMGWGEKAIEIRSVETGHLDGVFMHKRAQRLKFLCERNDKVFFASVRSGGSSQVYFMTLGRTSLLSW
Assay: Inhibition of MAP4K4 (unknown origin) at 1 uM relative to control
Settings: not given

For C/C=C/Cn1cc(-c2ccc(C(C)(C)O)cc2OC)c2cc[nH]c2c1=O, which inhibition is on record?
The inhibition was 10.5%.

Tested on: HEY
Assay: Cytotoxicity against human HEY cells measured after 8 days
Type: functional, cell-based
Settings: 192 h

With C/C=C/Cn1cc(-c2ccc(C(C)(C)O)cc2OC)c2cc[nH]c2c1=O as the compound, how does the pIC50 read?
Its pIC50 is 4.70.

Tested on: MFM-223
Assay: Cytotoxicity against human MFM-223 cells measured after 8 days
Type: functional, cell-based
Settings: MFM-223, 192 h

With C/C=C/Cn1cc(-c2ccc(C(C)(C)O)cc2OC)c2cc[nH]c2c1=O as the compound, how does the pIC50 read?
Its pIC50 is 4.94.

Molecular target: Aurora kinase B (Homo sapiens) (UniProt Q96GD4)
Sequence (Q96GD4 whole entry): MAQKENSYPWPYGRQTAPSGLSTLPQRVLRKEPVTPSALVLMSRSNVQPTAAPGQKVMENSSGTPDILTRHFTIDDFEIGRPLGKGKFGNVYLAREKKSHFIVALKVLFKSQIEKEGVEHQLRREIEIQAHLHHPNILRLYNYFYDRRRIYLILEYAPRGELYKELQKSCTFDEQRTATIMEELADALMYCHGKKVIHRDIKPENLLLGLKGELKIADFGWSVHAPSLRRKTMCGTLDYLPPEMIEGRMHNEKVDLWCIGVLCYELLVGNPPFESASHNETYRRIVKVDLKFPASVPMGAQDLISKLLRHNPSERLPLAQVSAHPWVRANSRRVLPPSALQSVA
Assay: Inhibition of Aurora B (unknown origin) at 1 uM relative to control
Settings: not given

Which inhibition does the source give for C/C=C/Cn1cc(-c2ccc(C(C)(C)O)cc2OC)c2cc[nH]c2c1=O here?
Its inhibition is -0.5%.

Tested on: OCI-AML-5
Assay: Cytotoxicity against human OCI-AML5 cells measured after 8 days
Type: functional, cell-based
Settings: OCI-AML-5, 192 h

With C/C=C/Cn1cc(-c2ccc(C(C)(C)O)cc2OC)c2cc[nH]c2c1=O as the compound, how does the pIC50 read?
The pIC50 was 4.70.

Tested on: NCI-H1666
Assay: Cytotoxicity against human NCI-H1666 cells measured after 8 days
Type: functional, cell-based
Settings: NCI-H1666, 192 h

With C/C=C/Cn1cc(-c2ccc(C(C)(C)O)cc2OC)c2cc[nH]c2c1=O as the compound, how does the pIC50 read?
The pIC50 was 4.70.

Organism: Homo sapiens
Assay: Displacement of [3H] Dofetilide from human potassium channel at 10 uM relative to control
Settings: not given

With C/C=C/Cn1cc(-c2ccc(C(C)(C)O)cc2OC)c2cc[nH]c2c1=O as the compound, how does the Activity read?
The Activity was -5%.

Tested on: not listed separately
Assay: Cytotoxicity against human HMY-1 cells measured after 8 days
Type: functional, cell-based
Settings: HMY-1, 192 h

With C/C=C/Cn1cc(-c2ccc(C(C)(C)O)cc2OC)c2cc[nH]c2c1=O as the compound, how does the pIC50 read?
Its pIC50 is 4.70.

Molecular target: Histone acetyltransferase KAT2A (Homo sapiens, UniProt Q92830)
Sequence (Q92830 whole entry, the tested form may be a part): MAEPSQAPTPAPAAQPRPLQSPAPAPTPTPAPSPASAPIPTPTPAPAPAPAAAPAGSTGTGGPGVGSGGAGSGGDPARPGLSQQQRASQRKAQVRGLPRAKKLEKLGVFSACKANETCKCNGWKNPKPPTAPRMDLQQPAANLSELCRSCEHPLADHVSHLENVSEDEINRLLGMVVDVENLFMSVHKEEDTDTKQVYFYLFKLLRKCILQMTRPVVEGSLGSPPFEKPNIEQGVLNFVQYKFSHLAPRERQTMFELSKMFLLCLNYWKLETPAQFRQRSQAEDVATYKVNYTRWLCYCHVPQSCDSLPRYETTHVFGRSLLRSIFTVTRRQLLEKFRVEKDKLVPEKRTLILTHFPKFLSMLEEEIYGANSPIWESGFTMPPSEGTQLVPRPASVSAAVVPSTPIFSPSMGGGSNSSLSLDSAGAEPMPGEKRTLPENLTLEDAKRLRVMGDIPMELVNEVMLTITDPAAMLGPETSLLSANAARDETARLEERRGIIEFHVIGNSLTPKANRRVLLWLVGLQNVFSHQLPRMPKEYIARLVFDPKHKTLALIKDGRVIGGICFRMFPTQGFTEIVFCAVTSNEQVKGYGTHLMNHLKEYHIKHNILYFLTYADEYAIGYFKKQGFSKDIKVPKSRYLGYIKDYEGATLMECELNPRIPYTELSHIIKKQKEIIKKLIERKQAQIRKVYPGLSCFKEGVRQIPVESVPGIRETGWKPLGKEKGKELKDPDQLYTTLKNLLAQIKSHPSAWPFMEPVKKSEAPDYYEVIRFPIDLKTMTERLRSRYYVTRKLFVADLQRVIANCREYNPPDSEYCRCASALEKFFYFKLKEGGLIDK
Assay: Binding affinity to human partial length GCN5L2 (E726 to K837 residues) expressed in bacterial expression system by BROMOscan assay
Settings: not given

With C/C=C/Cn1cc(-c2ccc(C(C)(C)O)cc2OC)c2cc[nH]c2c1=O as the compound, how does the pKd read?
The pKd was 6.39.

Tested on: not listed separately
Assay: Cytotoxicity against human MDST8 cells measured after 8 days
Type: functional, cell-based
Settings: MDST8, 192 h

With C/C=C/Cn1cc(-c2ccc(C(C)(C)O)cc2OC)c2cc[nH]c2c1=O as the compound, how does the pIC50 read?
The pIC50 was 4.70.

Tested on: not listed separately
Assay: Cytotoxicity against human NCI-H2110 cells measured after 8 days
Type: functional, cell-based
Settings: NCI-H2110, 192 h

With C/C=C/Cn1cc(-c2ccc(C(C)(C)O)cc2OC)c2cc[nH]c2c1=O as the compound, how does the pIC50 read?
Its pIC50 is 4.70.

Molecular target: Bromodomain testis-specific protein (Homo sapiens, UniProt Q58F21)
Assay: Binding affinity to human partial length BRDT bromodomain 1 (N21 to E137 residues) expressed in bacterial expression system by BROMOscan assay
Settings: not given

With C/C=C/Cn1cc(-c2ccc(C(C)(C)O)cc2OC)c2cc[nH]c2c1=O as the compound, how does the pKd read?
Its pKd is 6.08.

Tested on: HOP-62
Assay: Cytotoxicity against human HOP-62 cells measured after 8 days
Type: functional, cell-based
Settings: HOP-62, 192 h

With C/C=C/Cn1cc(-c2ccc(C(C)(C)O)cc2OC)c2cc[nH]c2c1=O as the compound, how does the pIC50 read?
The pIC50 was 4.70.

Tested on: LCLC-97TM1
Assay: Cytotoxicity against human LCLC-97TM1 cells measured after 8 days
Type: functional, cell-based
Settings: LCLC-97TM1, 192 h

With C/C=C/Cn1cc(-c2ccc(C(C)(C)O)cc2OC)c2cc[nH]c2c1=O as the compound, how does the pIC50 read?
Its pIC50 is 4.70.

Tested on: HCT-116
Assay: Cytotoxicity against human HCT-116 cells measured after 8 days
Type: functional, cell-based
Settings: HCT-116, 192 h

With C/C=C/Cn1cc(-c2ccc(C(C)(C)O)cc2OC)c2cc[nH]c2c1=O as the compound, how does the pIC50 read?
Its pIC50 is 4.70.

Tested on: A549
Assay: Cytotoxicity against human A549 cells measured after 8 days
Type: functional, cell-based
Settings: A549, 192 h

With C/C=C/Cn1cc(-c2ccc(C(C)(C)O)cc2OC)c2cc[nH]c2c1=O as the compound, how does the pIC50 read?
The pIC50 was 4.70.
